US6780978B2, “Fluorescence-activating antisera and IgG fraction therefrom” (Hamamatsu Photonics, K.K., priority 1998, dated 2004)

Legend:
anti-MG-KLH IgG [1] = assay: Absorption spectra of dye mixed with IgG fraction; type: binding, guinea-pig
Protocol: Concentrations of the aforementioned IgG fraction and MG solution were adjusted by dilution such that the protein concentration as described above and MG concentration would finally be 2 μM and 4 μM, respectively. Further, employing γ globulin of a guinea-pig as the control against anti-MG-KLH IgG (i.e., blank IgG), the absorption spectrum of a mixture of the IgG fraction and the MG solution was measured (See FIG. 3).

anti-MG-KLH IgG [2] = assay: Differential fluorescence spectra of dye mixed with IgG fraction; type: binding, guinea-pig; conditions: for fluorescent ability upon mixing with anti-MG-KLH IgG: differential spectrum versus blank IgG
Excerpt: Since the differential spectra can remove problematic noises in the fluorescence analysis such as the fluorescence of a cell itself and Raman scattering of a solvent, it becomes possible to obtain the fluorescence spectrum purely pertaining to a sample.

[3] = Absorbance of Malachite Green dilutions in PBS at 617 nm; type: physicochemical; conditions: 1 cm path
Protocol: Malachite Green is dissolved in a phosphate-buffered saline (hereinafter referred to as “PBS”) to prepare a series of dilutions in the concentration range of 4-4,000 nM.
Absorbance at a wavelength of 617 nm in these dilutions is measured with a Hitachi Model 557 two wavelength spectrophotometer using a quartz cell with a 1 cm optical path length and PBS as the reference (See Table 1), and a concentration—absorbance curve is prepared (See FIG. 6).

[4] = test system: IgG fraction derived from Guinea-pig 1; assay: Fluorescence of Malachite Green dilutions mixed with the IgG fraction; type: binding; conditions: IgG fraction 0.2 μM, excitation 617 nm
Protocol: A series of dilutions of Malachite Green in PBS solutions are prepared by adding to the solutions, the IgG fraction according to the invention which has been derived from Guinea-pig 1 in certain amounts (with the final concentration being 0.2 μM), and by adjusting concentrations of the dye within the range of 0-12 nM.
Fluorescence of these dilutions is measured with a Hitachi Model 850 fluorescence spectrophotometer under the following conditions: in a quartz cell of optical path length of 1.0 cm at the excitation side; an excitation wavelength of 617 nm; an emission wavelength of 650 nm; a band-pass width of 5 nm at both excitation and emission sides; High gain of a photomultiplier; a time constant of 1.5 sec; and a fluorescence integration time of 30 sec. Thus, a concentration-fluorescence intensity curve is prepared (See FIG. 5).
The fluorescence intensity is expressed as output values (i.e., arbitrary, relative units) of the fluorescence spectrophotometer.

CN(C)c1ccc(C(=N)c2ccc(N(C)C)cc2)cc1.Cl [Auramine O]
change of absorption intensity in anti-MG-KLH IgG mixed solution (anti-MG-KLH IgG [1]): decline in the absorption intensity
shift of absorption spectrum in anti-MG-KLH IgG mixed solution (anti-MG-KLH IgG [1]): shift toward longer wavelengths
fluorescent ability upon mixing with anti-MG-KLH IgG (anti-MG-KLH IgG [2]): manifests its fluorescent ability

CN(C)c1ccc(C(=C2C=CC(=[N+](C)C)C=C2)c2ccccc2)cc1 [Malachite Green]
Absorbance (617 nm) ([3]; 4 nM in PBS): 0
Absorbance (617 nm) ([3]; 12 nM in PBS): 0
Absorbance (617 nm) ([3]; 40 nM in PBS): 0.002
Absorbance (617 nm) ([3]; 120 nM in PBS): 0.009
Absorbance (617 nm) ([3]; 400 nM in PBS): 0.036
Absorbance (617 nm) ([3]; 1200 nM in PBS): 0.132
Absorbance (617 nm) ([3]; 4000 nM in PBS): 0.464
Fluorescence intensity (650 nm) ([4]; 0.04 nM dye): 0.026 arbitrary, relative units
Fluorescence intensity (650 nm) ([4]; 0.12 nM dye): 0.034 arbitrary, relative units
Fluorescence intensity (650 nm) ([4]; 0.4 nM dye): 0.066 arbitrary, relative units
Fluorescence intensity (650 nm) ([4]; 1.2 nM dye): 0.18 arbitrary, relative units
Fluorescence intensity (650 nm) ([4]; 4 nM dye): 0.487 arbitrary, relative units
Fluorescence intensity (650 nm) ([4]; 12 nM dye): 1.22 arbitrary, relative units
shift of wavelength of absorption maximum to longer wavelength relative to dye alone (anti-MG-KLH IgG [1]; IgG 2 μM, MG 4 μM): 6-7 nm
increase of fluorescence quantum yield (anti-MG-KLH IgG [2]; by the treatment according to the invention): over 1,000 times
fluorescent ability upon mixing with anti-MG-KLH IgG (anti-MG-KLH IgG [2]): fluorescent
